pIC50: −log10 of the molar value.
Columns and labels:
[1] = target: T1, Toll-like receptor 8 (Homo sapiens, UniProt Q9NR97); experiment: Antagonist activity at TLR8 in human PBMC cells […] assessed as reduction in IL-6 level measured after 20 hrs by AlphaLISA assay; assay type: cell-based
T1 sequence (Q9NR97 whole entry): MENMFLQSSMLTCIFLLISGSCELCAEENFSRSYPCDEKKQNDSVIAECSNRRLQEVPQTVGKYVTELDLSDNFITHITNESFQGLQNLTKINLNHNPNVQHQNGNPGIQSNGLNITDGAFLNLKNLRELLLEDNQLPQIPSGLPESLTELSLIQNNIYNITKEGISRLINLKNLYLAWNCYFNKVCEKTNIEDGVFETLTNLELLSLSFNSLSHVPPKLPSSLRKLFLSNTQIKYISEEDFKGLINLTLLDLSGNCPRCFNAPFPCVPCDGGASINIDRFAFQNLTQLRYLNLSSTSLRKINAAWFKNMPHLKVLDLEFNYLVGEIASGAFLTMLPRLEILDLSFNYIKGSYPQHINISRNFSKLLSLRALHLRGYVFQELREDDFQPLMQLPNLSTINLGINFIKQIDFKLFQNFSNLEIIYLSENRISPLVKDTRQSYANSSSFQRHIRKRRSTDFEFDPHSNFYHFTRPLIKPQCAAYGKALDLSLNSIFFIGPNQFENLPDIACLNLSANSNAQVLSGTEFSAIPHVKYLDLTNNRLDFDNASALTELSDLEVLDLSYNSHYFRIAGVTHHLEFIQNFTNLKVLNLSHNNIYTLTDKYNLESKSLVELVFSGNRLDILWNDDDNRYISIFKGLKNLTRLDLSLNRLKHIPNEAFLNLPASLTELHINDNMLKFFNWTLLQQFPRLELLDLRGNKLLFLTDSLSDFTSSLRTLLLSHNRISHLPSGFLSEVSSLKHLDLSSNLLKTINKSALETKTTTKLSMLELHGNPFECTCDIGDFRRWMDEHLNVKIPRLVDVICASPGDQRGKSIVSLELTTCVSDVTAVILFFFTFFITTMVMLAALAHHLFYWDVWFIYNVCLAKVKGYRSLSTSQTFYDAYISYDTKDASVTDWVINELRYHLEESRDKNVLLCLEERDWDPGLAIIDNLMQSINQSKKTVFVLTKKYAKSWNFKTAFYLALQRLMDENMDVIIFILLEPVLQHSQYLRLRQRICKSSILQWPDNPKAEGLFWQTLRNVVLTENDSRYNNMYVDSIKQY

[2] = Metabolic stability in human liver microsomes assessed as intrinsic clearance; assay type: ADME, Microsome; settings: read-out: CLH
[3] = target: Voltage-gated inwardly rectifying potassium channel KCNH2 (Homo sapiens, UniProt Q12809); experiment: Displacement of [3H]-dofetilite from human ERG (unknown origin); assay type: toxicity
Voltage-gated inwardly rectifying potassium channel KCNH2, sequence (Q12809 whole entry): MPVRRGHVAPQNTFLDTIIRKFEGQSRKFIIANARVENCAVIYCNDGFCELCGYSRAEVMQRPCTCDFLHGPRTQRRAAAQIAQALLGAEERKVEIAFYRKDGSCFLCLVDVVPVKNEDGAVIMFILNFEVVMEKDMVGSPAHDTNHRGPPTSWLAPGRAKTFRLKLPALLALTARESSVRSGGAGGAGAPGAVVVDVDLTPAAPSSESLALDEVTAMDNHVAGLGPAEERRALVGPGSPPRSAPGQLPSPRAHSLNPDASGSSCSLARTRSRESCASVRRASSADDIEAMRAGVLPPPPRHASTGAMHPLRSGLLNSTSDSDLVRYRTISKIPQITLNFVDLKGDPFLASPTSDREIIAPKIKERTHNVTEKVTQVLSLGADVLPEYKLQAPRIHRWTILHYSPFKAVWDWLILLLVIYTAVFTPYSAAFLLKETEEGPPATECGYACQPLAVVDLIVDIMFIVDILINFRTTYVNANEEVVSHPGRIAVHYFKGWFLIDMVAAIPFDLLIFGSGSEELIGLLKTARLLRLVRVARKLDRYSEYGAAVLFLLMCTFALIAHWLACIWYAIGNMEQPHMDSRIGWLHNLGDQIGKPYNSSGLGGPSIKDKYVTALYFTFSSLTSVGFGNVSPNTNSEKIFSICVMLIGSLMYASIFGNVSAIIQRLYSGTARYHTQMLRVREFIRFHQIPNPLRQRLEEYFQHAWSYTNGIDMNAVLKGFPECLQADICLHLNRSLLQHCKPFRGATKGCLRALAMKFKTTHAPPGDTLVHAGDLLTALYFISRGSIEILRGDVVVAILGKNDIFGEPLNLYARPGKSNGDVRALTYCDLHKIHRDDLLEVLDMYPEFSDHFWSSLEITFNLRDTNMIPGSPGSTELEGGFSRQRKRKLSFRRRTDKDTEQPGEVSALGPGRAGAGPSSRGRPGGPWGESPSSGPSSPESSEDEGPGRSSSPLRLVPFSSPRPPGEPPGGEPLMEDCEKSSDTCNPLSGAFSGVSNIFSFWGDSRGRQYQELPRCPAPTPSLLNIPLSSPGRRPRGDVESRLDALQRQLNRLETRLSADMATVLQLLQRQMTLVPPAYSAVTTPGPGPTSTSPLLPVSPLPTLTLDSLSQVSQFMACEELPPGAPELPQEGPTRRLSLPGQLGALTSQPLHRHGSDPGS

[4] = target: T2, Cytochrome P450 3A4 (Homo sapiens, UniProt P08684); experiment: Time dependent inhibition of CYP3A4 (unknown origin) assessed as Kobs; assay type: ADME; note: test concentration or dose not given here
T2 sequence (P08684 whole entry): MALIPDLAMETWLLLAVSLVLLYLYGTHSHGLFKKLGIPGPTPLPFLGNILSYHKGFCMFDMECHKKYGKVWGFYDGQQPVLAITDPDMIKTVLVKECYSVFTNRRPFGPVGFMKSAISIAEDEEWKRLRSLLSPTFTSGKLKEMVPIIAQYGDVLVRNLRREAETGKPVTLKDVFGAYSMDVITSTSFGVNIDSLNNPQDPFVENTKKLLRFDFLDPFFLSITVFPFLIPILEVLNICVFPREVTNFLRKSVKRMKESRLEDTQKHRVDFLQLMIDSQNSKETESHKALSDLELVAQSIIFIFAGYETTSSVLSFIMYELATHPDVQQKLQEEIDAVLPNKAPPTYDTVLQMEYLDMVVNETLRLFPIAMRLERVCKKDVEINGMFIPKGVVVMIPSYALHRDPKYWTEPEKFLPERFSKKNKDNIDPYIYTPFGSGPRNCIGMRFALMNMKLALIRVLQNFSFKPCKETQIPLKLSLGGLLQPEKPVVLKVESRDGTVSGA

[5] = target: T2, Cytochrome P450 3A4; experiment: Inhibition of CYP3A4 (unknown origin); assay type: ADME
[6] = target: T3, Toll-like receptor 9 (Homo sapiens, UniProt Q9NR96); experiment: Antagonist activity at TLR9 in human PBMC cells assessed as reduction in IFN alpha measured after 20 hrs by AlphaLISA assay; assay type: cell-based
T3 sequence (Q9NR96 whole entry): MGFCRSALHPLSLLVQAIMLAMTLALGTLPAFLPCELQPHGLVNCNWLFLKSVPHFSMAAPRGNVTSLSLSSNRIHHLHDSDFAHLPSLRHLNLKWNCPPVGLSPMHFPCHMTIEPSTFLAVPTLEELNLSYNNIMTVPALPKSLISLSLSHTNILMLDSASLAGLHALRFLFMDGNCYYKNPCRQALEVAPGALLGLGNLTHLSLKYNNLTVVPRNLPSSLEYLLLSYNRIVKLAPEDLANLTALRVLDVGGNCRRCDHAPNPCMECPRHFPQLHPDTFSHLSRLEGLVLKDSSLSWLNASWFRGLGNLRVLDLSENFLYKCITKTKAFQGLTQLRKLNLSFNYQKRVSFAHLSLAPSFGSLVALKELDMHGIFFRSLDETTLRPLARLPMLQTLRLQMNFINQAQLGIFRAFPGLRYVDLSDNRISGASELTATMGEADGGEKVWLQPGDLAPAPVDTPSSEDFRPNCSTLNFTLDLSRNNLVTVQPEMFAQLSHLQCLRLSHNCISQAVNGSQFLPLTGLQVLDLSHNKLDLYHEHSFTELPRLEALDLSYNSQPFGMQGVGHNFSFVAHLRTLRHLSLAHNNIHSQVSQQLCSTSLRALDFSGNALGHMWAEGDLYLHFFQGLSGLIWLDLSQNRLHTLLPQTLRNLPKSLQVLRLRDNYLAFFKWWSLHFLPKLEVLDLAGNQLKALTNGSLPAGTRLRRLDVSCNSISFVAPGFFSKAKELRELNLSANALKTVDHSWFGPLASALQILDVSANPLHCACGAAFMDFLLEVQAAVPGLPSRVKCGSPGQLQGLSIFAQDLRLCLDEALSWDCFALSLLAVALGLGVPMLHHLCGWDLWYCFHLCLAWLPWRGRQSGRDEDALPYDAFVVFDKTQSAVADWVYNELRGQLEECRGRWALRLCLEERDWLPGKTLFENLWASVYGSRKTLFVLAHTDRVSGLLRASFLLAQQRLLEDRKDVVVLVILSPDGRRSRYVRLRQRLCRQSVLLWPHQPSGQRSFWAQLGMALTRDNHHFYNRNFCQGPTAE

[7] = Metabolic stability in mouse liver microsomes assessed as intrinsic clearance; assay type: ADME, Microsome; settings: read-out: CLH
[8] = Permeability of the compound by PAMPA; assay type: ADME
[9] = Metabolic stability in rat liver microsomes assessed as intrinsic clearance; assay type: ADME, Microsome; settings: read-out: CLH
[10] = target: T4, Toll-like receptor 7 (Homo sapiens, UniProt Q9NYK1); experiment: Antagonist activity at TLR7 in human PBMC cells assessed as reduction in IFN alpha measured after 20 hrs by AlphaLISA assay; assay type: cell-based
T4 sequence (Q9NYK1 whole entry): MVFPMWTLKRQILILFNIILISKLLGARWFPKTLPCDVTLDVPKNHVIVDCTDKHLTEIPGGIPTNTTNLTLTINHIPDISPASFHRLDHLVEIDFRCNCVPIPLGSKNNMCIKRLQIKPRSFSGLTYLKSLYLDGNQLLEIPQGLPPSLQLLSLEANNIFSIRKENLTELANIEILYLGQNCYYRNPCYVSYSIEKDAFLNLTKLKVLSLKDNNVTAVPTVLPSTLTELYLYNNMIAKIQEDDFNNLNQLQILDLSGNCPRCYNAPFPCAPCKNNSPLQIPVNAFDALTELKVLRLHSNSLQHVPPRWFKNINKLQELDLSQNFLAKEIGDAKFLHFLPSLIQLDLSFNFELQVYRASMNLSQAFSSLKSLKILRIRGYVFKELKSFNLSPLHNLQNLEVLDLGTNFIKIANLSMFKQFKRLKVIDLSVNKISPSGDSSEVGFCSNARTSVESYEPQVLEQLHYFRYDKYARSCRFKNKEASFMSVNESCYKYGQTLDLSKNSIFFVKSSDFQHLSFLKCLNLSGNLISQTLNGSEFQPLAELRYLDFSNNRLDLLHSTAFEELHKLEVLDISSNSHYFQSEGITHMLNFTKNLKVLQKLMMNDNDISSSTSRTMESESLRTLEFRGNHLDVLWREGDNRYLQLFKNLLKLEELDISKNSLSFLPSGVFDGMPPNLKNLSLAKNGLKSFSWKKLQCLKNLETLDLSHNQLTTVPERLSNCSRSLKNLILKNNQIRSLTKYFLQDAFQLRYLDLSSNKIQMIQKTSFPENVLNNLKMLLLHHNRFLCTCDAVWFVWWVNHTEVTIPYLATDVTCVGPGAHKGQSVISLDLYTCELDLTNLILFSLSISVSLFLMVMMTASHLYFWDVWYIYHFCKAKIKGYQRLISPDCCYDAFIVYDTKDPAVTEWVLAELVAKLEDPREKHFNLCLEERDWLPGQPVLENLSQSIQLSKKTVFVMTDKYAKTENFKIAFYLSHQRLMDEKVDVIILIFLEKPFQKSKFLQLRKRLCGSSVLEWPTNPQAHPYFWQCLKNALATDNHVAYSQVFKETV

SMILES | pIC50 [1] | microsomal CLint [2] | pIC50 [3] | Kobs [4] | pIC50 [5] | pIC50 [6] | microsomal CLint [7] | log(permeability) [8] | microsomal CLint [9] | pIC50 [10]
Cc1cc(N2CCc3c(c(C)nn3CC34CCC(N5CCC5)(CC3)CC4)C2)c2cnn(C)c2n1 | 6.92 | 96 µL/min/mg | < 4.52 | 0.015 min⁻¹ | < 4.30 | 6.28 | 65 µL/min/mg | -4.7 | 30 µL/min/mg | 8.30
Cc1cc(N2CCc3c(c(C)nn3CC34CCC(NC(=O)[C@@H]5CNCCO5)(CC3)CC4)C2)c2cnn(C)c2n1 | 7.17 | 135 µL/min/mg | – | – | 5.26 | 6.72 | 93 µL/min/mg | -5.2 | 24 µL/min/mg | 8.70
Cc1cc(N2CCc3c(c(C)nn3CC34CCC(N5CCN(C)CC5=O)(CC3)CC4)C2)c2cnn(C)c2n1 | – | 71 µL/min/mg | < 4.52 | – | < 4.30 | 5.26 | 251 µL/min/mg | -4.3 | 50 µL/min/mg | 7.72
CCN(C)CC(=O)NC12CCC(Cn3nc(C)c4c3CCN(c3cc(C)nc5c3cnn5C)C4)(CC1)CC2 | 8.15 | 463 µL/min/mg | < 4.52 | 0.013 min⁻¹ | 4.55 | – | > 700 µL/min/mg | -4.1 | 48 µL/min/mg | > 8.30
Cc1cc(N2CCc3c(c(C)nn3CC34CCC(NC(=O)CN5CCC5)(CC3)CC4)C2)c2cnn(C)c2n1 | 7.22 | 90 µL/min/mg | < 4.52 | 0.044 min⁻¹ | 4.77 | 6.55 | – | -4.6 | 37 µL/min/mg | 9.00
Cc1cc(N2CCc3c(c(C)nn3CC34CCC(NCC(=O)N(C)C)(CC3)CC4)C2)c2cnn(C)c2n1 | 6.72 | 31 µL/min/mg | – | – | – | 5.52 | < 15 µL/min/mg | -5.4 | 29 µL/min/mg | 7.39
Cc1cc(N2CCc3c(c(C)nn3CC34CCC(NC(=O)CN(C)C)(CC3)CC4)C2)c2cnn(C)c2n1 | 7.60 | 147 µL/min/mg | < 4.52 | 0.006 min⁻¹ | < 4.30 | 6.14 | 104 µL/min/mg | -4.3 | 33 µL/min/mg | 8.22
Cc1cc(N2CCc3c(c(C)nn3CC34CCC(NC(=O)[C@H]5COCCN5)(CC3)CC4)C2)c2cnn(C)c2n1 | 6.66 | 54 µL/min/mg | < 4.52 | 0.018 min⁻¹ | < 4.30 | 5.72 | 382 µL/min/mg | -5.3 | < 15 µL/min/mg | 7.89
CN[C@H](C)C(=O)NC12CCC(Cn3nc(C)c4c3CCN(c3cc(C)nc5c3cnn5C)C4)(CC1)CC2 | 6.72 | < 15 µL/min/mg | < 4.52 | 0.023 min⁻¹ | < 4.30 | 6.11 | 120 µL/min/mg | -5.3 | < 15 µL/min/mg | –
Cc1cc(N2CCc3c(c(C)nn3CC34CCC(NC(=O)CN5CCCC5)(CC3)CC4)C2)c2cnn(C)c2n1 | – | 329 µL/min/mg | – | – | – | 5.92 | 531 µL/min/mg | -4.1 | < 15 µL/min/mg | 8.40

From ChEMBL document CHEMBL5360657, “Discovery of the TLR7/8 Antagonist MHV370 for Treatment of Systemic Autoimmune Diseases” (ACS Med Chem Lett, 2023)
